Results as given in ChEMBL document CHEMBL3120147, “Synthesis and in vitro urease inhibitory activity of N,N'-disubstituted thioureas” (Eur J Med Chem, 2014).

How the values were obtained:
Urease [1] = biological target: T1, Urease (Canavalia ensiformis, UniProt P07374); experiment: Inhibition of jack bean urease using urea as substrate assessed as ammonia production after 15 mins by indophenol method
Urease [2] = biological target: T1, Urease; experiment: (§1) Mixed-type inhibition of jack bean urease using urea as substrate assessed as ammonia production after 15 mins by Lineweaver-Burk/Dixon plot analysis
[3] = biological target: Urease (Canavalia ensiformis) (UniProt P07374); experiment: as §1
Urease (Canavalia ensiformis), sequence (P07374 whole entry, looked up): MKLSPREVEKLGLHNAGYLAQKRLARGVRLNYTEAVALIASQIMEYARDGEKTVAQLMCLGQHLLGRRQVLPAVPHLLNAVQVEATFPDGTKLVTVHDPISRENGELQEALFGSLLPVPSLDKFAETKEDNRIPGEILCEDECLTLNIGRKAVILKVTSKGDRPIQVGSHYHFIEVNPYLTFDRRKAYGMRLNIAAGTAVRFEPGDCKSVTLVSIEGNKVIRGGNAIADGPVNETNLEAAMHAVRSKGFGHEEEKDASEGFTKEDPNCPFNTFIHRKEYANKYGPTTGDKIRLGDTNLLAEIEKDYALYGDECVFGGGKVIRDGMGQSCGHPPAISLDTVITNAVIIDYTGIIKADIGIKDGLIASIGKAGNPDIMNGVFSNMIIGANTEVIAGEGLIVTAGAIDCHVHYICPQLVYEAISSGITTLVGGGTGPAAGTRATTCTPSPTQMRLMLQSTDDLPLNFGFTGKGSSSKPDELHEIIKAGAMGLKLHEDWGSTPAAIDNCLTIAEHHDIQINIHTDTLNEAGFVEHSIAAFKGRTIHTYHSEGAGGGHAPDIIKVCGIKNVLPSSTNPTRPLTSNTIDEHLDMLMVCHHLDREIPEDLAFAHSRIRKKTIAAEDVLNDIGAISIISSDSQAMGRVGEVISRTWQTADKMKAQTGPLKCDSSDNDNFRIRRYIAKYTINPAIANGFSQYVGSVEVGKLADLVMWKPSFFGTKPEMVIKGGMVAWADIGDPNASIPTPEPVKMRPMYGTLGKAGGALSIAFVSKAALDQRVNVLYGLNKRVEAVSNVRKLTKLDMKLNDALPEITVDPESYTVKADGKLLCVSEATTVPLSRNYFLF

Urease [4] = biological target: T1, Urease; experiment: (§2) Non-competitive inhibition of jack bean urease using urea as substrate assessed as ammonia production after 15 mins by Lineweaver-Burk/Dixon plot analysis
[5] = biological target: Urease (Canavalia ensiformis) (UniProt P07374); experiment: as §2
Urease [6] = biological target: T1, Urease; experiment: (§3) Competitive inhibition of jack bean urease using urea as substrate assessed as ammonia production after 15 mins by Lineweaver-Burk/Dixon plot analysis
[7] = biological target: Urease (Canavalia ensiformis) (UniProt P07374); experiment: as §3

T1 sequence (P07374 whole entry): as the sequence (P07374 whole entry, looked up) above

SMILES	IC50 (Urease [1]; read-out: IC50) [µM]	further results
Cc1ccc(C)c(NC(=S)Nc2cccc(Cl)c2)c1	20.9	Ki (Urease [2]): 19.3 µM; inhibition [3]: Dose-dependent effect
S=C(Nc1cccc(Cl)c1)Nc1cccc(Cl)c1Cl	27.1	–
S=C(Nc1cccc(Cl)c1)Nc1c(Cl)cccc1Cl	41	–
Cc1cccc(C)c1NC(=S)Nc1cccc(Cl)c1	27.4	–
S=C(Nc1ccccc1)Nc1ccccn1	23.4	–
Cc1ccc(NC(=S)Nc2cccc(Cl)c2)cc1	18.6	Ki (Urease [4]): 12.1 µM; inhibition [5]: Dose-dependent effect
S=C(NCc1ccco1)Nc1ccccc1	32.4	–
COc1cccc(NC(=S)Nc2cccc(Cl)c2)c1	24.5	–
COc1ccccc1NC(=S)Nc1cccc(Cl)c1	20.1	–
S=C(Nc1cccc(Cl)c1)Nc1cccnc1Cl	–	IC50 (Urease [1]): Not Active
S=C(NCc1ccncc1)Nc1cccc(Cl)c1	22.7	–
S=C(Nc1cccc(Cl)c1)Nc1ccc(Cl)cc1Cl	42.2	–
Cc1cccnc1NC(=S)Nc1ccccc1	25.3	–
COc1ccc(NC(=S)Nc2cccc(Cl)c2)cc1	29.6	–
Cc1nc(NC(=S)Nc2ccccc2)ccc1Br	82.7	–
S=C(Nc1cccnc1)Nc1cccc(Cl)c1	24.5	–
Cc1cccnc1NC(=S)Nc1cccc(Cl)c1	15.9	–
S=C(NCc1ccncc1)Nc1ccccc1	32.6	–
S=C(Nc1ccccc1)Nc1ccc(Br)cc1	34.3	–
Cc1ccc(Cl)cc1NC(=S)Nc1cccc(Cl)c1	20.1	Ki (Urease [2]): 18.5 µM; inhibition [3]: Dose-dependent effect

SMILES	IC50 (Urease [1]; read-out: IC50) [µM]	further results
S=C(Nc1cccc(Cl)c1)Nc1ccccc1Cl	22.2	–
Fc1ccc(NC(=S)Nc2ccccc2)c(F)c1	24.3	–
S=C(Nc1cccc(Cl)c1)Nc1cccc(Cl)c1	20	Ki (Urease [2]): 18.1 µM; inhibition [3]: Dose-dependent effect
S=C(Nc1ccc(Cl)cc1)Nc1cccc(Cl)c1	20.3	Ki (Urease [2]): 18.1 µM; inhibition [3]: Dose-dependent effect
Fc1ccc(NC(=S)Nc2cccc(Cl)c2)cc1	19.1	Ki (Urease [2]): 16.8 µM
S=C(Nc1cccc(Cl)c1)Nc1ccc(Cl)c(Cl)c1	11	Ki (Urease [6]): 11.7 µM; inhibition [7]: Dose-dependent effect
S=C(Nc1ccccc1)Nc1cccnc1	8.43	Ki (Urease [6]): 8.6 µM; inhibition [7]: Dose-dependent effect
S=C(Nc1ccccc1)Nc1ncc(Cl)cc1Cl	37	–
S=C(NCc1cccnc1)Nc1ccccc1	33.5	–
Cc1ccccc1NC(=S)Nc1cccc(Cl)c1	34.4	–
S=C(Nc1ccccc1)Nc1cccnc1Cl	–	IC50 (Urease [1]): Not Active
Cc1cccc(NC(=S)Nc2cccc(Cl)c2)c1	15	Ki (Urease [2]): 15.7 µM; inhibition [3]: Dose-dependent effect
S=C(Nc1ccccc1)Nc1ccncc1	43.9	–
Fc1ccc(NC(=S)Nc2cccc(Cl)c2)cc1F	16.3	–
S=C(Nc1ccccc1)Nc1cccc(Br)c1	18.3	Ki (Urease [2]): 15.6 µM; inhibition [3]: Dose-dependent effect
Cc1ccc(NC(=S)Nc2cccc(Cl)c2)c(C)c1	24.1	–
COc1ccc(OC)c(NC(=S)Nc2ccccc2)c1	29.9	–
NC(N)=S [THIOUREA]	–	Ki (Urease [6]): 20 µM
Fc1ccc(NC(S)=Nc2cccc(Cl)c2)cc1	–	inhibition [3]: Dose-dependent effect
S=C(NCc1cccnc1)Nc1cccc(Cl)c1	23	–
